In patent publication US20210284691A1, “CBX8 CHROMDOMAIN INHIBITORS AND THE USES THEREOF” (Purdue Research Foundation, priority 2019, published 2021):
Square brackets hold non-standard residues; d marks the D form. Primed or numbered codes have the meaning given here. Ends that are not written are not given here. Peptide text beside a SMILES is read from it. * marks the point of attachment. Isoxazole3carbonyl(5-Me) = Cc1cc(C(=O)*)no1; Tyr(3-Cl) = N[C@@H](Cc1ccc(O)c(Cl)c1)C(=O)O; Lys(Et2) = CCN(CC)CCCC[C@H](N)C(=O)O; PEG4′ = not defined here; NH(propargyl) = C#CCN*

Legend:
[1] = molecular target: T1, CBX8 binding to chromatin (Homo sapiens, UniProt Q9HC52); test: ChIP-qPCR in Hs68 fibroblast cells; format: cell-based; conditions: 120 μM
T1 construct: endogenous in cells; host or cells: Hs68 fibroblasts (A16); HEK293T (A19); K562 (A23)
T1 sequence (Q9HC52 1-389): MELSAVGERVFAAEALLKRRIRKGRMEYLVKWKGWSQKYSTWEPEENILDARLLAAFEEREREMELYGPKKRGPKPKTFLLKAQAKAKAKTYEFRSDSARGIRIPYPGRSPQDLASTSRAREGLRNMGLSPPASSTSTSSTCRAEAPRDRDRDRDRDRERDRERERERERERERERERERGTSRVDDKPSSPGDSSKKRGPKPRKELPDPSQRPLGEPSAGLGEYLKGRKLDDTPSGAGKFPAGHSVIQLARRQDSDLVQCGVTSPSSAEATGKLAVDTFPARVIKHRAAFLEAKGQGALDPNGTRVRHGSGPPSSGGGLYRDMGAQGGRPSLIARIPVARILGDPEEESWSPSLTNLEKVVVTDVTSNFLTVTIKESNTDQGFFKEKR
Protocol: ChIP: Hs68 cells were seeded at 4×10^6 in a 10 cm cell culture plates 16 hours prior to treatment. […] ChIP was performed as described in Connelly et al., 2018. Birefly, cells were washed with PBS and fixed on the plate with CiA Fix buffer (50 mM HEPES, pH 8.0, 1 mM EDTA, 0.5 mM ETGA, 100 mM NaCl) and 1% formaldehyde for 10 min at room temperature. Crosslinking was quenched with 0.125 M glycine for 5 min at 4° C. Cells were washed once with PBS and lifted off the plate then resuspended in CiA NP Rinse buffer 1 (50 mM HEPES pH 8.0, 140 mM NaCl, 1 mM EDTA, 10% glycerol, 0.5% NP-40, 0.25% Triton X) for 10 min. Cells were pelleted at 1200×g for 5 min at 4° C. The supernatant was removed, and the cells were resuspended in CiA NP rinse buffer 2 (10 mM Tris pH 8.0, 1 mM EDTA, 0.5 mM EGTA, 200 mM NaCl). Cells were collected by centrifugation, 1200×g for 5 min. Supernatant was removed and the cells were washed twice with shearing buffer (0.1% SDS, 1 mM EDTA, 10 mM Tris HCl, pH 8.0). Cells were resuspended in shearing buffer and sonicated for 7 min with the probe (Branson). Lysate was centrifuged at 21,000×g for 15 min to remove debris. Supernatant was collected and pre-cleared overnight with Protein A/G magnetic beads (Pierce). […]
qPCR: qPCR was performed on the isolated ChIP DNA using SYBR master mix (Thermo) and run on the BioRad CFX thermo cycler. […] Enrichment was determined by percent input. […]

CBX8 regulated gene = test: Gene expression of a CBX8 regulated gene in HEK293T cells; format: cell-based, Human; conditions: high compound concentrations
THP1 cells = conditions: 50 μM
CBX8 ChD = molecular target: T2, CBX8 ChD (Homo sapiens, UniProt Q9HC52); test: Direct fluorescence polarization (FP) binding assay; conditions: from Kd values
T2 construct: CBX chromodomain constructs; host or cells: E. coli BL21 CodonPlus RIL
T2 sequence (Q9HC52 11-69 limits assumed): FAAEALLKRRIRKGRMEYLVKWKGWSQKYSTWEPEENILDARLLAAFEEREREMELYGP
Protocol: Bacterial growth was completed at 37° C. in LB media to OD600=2.0, followed by reducing the temperature to 16° C. over 30-60 min and induced with 1 mM IPTG for 16 h. Cells were collected by centrifugation at 6000 rpm for 20 min and resuspended in ChD binding buffer (20 mM Tris, pH 8, 150 mM NaCl, 0.01% Tween-20, 20 mM imidazole) with 1.0 mM PMSF. Bacteria pellets were stored at −80° C. until needed. Pellets were thawed on ice for 10 min in ChD binding buffer, and shaked at 4° C. supplemented with 100 μg/mL lysozyme, 1 mg/mL CHAPS and 1 mM PMSF, for 30 min. Cells were subsequently lysed by sonication (15 W, 30 s on, followed by 30 s off, twice, followed by 20 W for 1 min). The solubilized fraction was collected by centrifugation at 15000 rpm for 40 min at 4° C. Meanwhile, Ni-NTA Agarose resin (QIAGEN, Venlo, Netherlands) was washed with H2O and equilibrated with ChD binding buffer. The soluble fraction was incubated with the prewashed Ni-NTA agarose resin at 4° C. for 2 h. The resin was then washed 3× with ChD purification buffer (20 mM Tris, pH 8, 150 mM NaCl, 0.01% Tween-20, 1 mM PMSF). Proteins were eluted by the addition of 0.5 M imidazole to ChD purification buffer. The elution was diluted with 30% glycerol, flash frozen, and stored at −80° C. until needed. Protein purity was assessed by SDS-PAGE and concentration was determined by the Pierce 660 kit (Thermo Scientific).
Direct fluorescence polarization (FP) binding assay of PSL hits against PcG CBX ChDs. FP assays were conducted as above with slight modifications. Alkyne peptides described above were conjugated with a fluorescein group(5-/6-FAM) through copper catalyzed click reaction as previously described. The FAM-labeled peptide was kept constant at 100 nM. The CBX ChD proteins were titrated by 2-fold series dilutions in the assays. The highest protein concentrations, at which FAM-peptide was completely bound, used for each CBX in the direct binding assays depends on the binding affinity of the peptides. Assays were performed for each peptide in four replicates.

LNCaP cells = test: LNCaP cell proliferation; format: cell-based; conditions: ENZA treatment
Text: To generate an in vitro model for NED, we cultured the androgen-sensitive prostate cancer cell line LNCaP in charcoal-stripped serum (CSS), which lacks androgens as well as other steroids. […] To verify that LNCaP_NED cells become resistant to AR antagonists, we tested the effects of the AR antagonist enzalutamide (ENZA) on cell proliferation.

LNCaP_NED cells = test: LNCaP_NED cell proliferation, viability and morphology; format: cell-based; conditions: enzalutamide treatment
Text: FIG. 12A). Neuroendocrine differentiation (NED) of prostate cancer induced by androgen deprivation. Representative pictures of LNCaP cells treated with normal media or charcoal-stripped serum (CSS) media for 6 days to induce neuroendocrine differentiation (LNCaP_NED). FIG. 12B). Transcriptional fold changes of KLK3/TMPRSS2/ENO2/CHGA were quantified normalized to control gene YWHAZ upon CSS media treatment for 6 or 9 days. FIG. 12C). Western blotting of CBX paralogs in LNCaP and LNCaP_NED cells generated from 14-day CSS treatment. FIG. 12D). Cell proliferation of LNCaP_NED following 5 days incubation with 2 or 10 μM SW2_152F. DMSO was used as negative control. FIG. 12E). LNCaP_NED cells were treated with 10 μM SW2_152F for 24 h-96 h. Cell morphology pictures were captured starting from 24 h. Average cell size were plotted at 24 h or 48 h for both DMSO group and compound treated group. FIG. 12F). LNCaP_NED cells were treated with 10 μM or 50 μM SW2_152F for 48 hours. Transcriptional fold change of genes (KLK3/TMPRSS2/AR/CBX2) were normalized to YWHAZ in LNCaP_NED cells with SW2_152F treatment or DMSO. FIG. 12G). LNCaP cells were treated with DMSO. LNCaP_NED cells were treated with DMSO, 10 μM GSK343 or 10 μM SW2_152F for 48 hours. Whole cell lysates were extracted for western blotting. FIG. 12H). LNCaP_NED cells were treated with DMSO or 10 μM SW2_152F for 4 hours before harvest. Binding of H3K27me3 and CBX2 at specific genomic sites (KLK3/TMPRSS2, e: enhancer, p: promoter) were evaluated using chromatin immunoprecipitation-qPCR. For all experiments in the figure, error bars represent SEM n=3 biological replicates, p-values were calculated using two-tailed Student's t-test, *=p<0.05, **=p<0.01, ***=p<0.001, ****=p<0.0001.
Cellular Activity of CBX2 Inhibitor in Neuroendocrine Differentiation of Prostate Cancer—Generation of a Prostate Cancer Neuroendocrine Differentiation (NED) System. To generate an in vitro model for NED, we cultured the androgen-sensitive prostate cancer cell line LNCaP in charcoal-stripped serum (CSS), which lacks androgens as well as other steroids. Upon treatment with CSS media, LNCaP cells adopted morphological characteristics of neuroendocrine-like cells (LNCaP_NED), which include dominant nucleus, limited cytoplasm, dendrites (FIG. 12A) and a decreased proliferation rate. To monitor transcriptional changes during androgen deprivation, we quantified the changes in expression of two NED markers (ENO2 and CHGA) and two AR target genes (KLK3 and TMPRSS2) by RT-qPCR during 15 days of androgen deprivation. […] To verify that LNCaP_NED cells become resistant to AR antagonists, we tested the effects of the AR antagonist enzalutamide (ENZA) on cell proliferation.

endogenous CBX proteins = test: Peptide pull-down / chemoprecipitation from HEK293T lysates; format: binding, Human
Protocol: 2×10^7 HEK293T cells were seeded in a 15 cm cell culture dish overnight. Next day, media was removed and cells were washed with PBS. Cells were lysed with 5 ml Buffer A (25 mM HEPES, 5 mM KCl, 25 mM MgCl2, 0.05 mM EDTA, 10% glycerol, 0.1% NP-40, plus protease inhibitors) on ice for 15 minutes. The nuclei were pelleted and re-suspended in IP buffer (25 mM Tris, 300 mM NaCl, 1 mM EDTA, 1% NP-40, plus protease inhibitors) for 15 minutes. The sample were spun down at 15,000 rpm at 4° C. for 5 min and lysates were transferred to separate tubes. Protein concentrations were determined by Pierce 660 nm kit (Thermo Scientific). Streptavidin M-270 Dynabeads (Solulink, San Diego, Calif.) was washed three times with Pulldown Binding Buffer (50 mM Tris, 150 mM NaCl, 0.5 mM DTT). 10× of biotinylated peptides SW2_110A-B, as well as biotinylated H3K27me3 (21-44) and biotinylated H3 (21-44), were incubated with […] pre-equilibriumed beads at 4° C. for an hour. After biotin-peptide being immobilized on resin, extra unbound peptides were removed by 3× washing, and 200 μg of nuclear lysate supernatant was added to each washed and immobilized biotinylated peptide (biotin-H3, biotin-H3K27me3, SW2_110A-B). The mixture was rotated at 4° C. for 2 hours. Then, the depleted lysate was removed and the beads were washed with Pulldown Binding Buffer 3× at 4° C. […] ImageJ was employed to quantitate the protein bands.

C#CCNC(=O)[C@H](CO)NC(=O)[C@H](CCCCN(CC)CC)NC(=O)[C@@H](NC(=O)[C@@H](NC(=O)[C@H](Cc1ccc(O)c(Cl)c1)NC(=O)c1cc(C)on1)C(C)C)[C@@H](C)CC [KED97L] ({Isoxazole3carbonyl(5-Me)}-[Tyr(3-Cl)]VI[Lys(Et2)]S-{NH(propargyl)}; C-terminus assumed)
CBX8 binding at a known target, ChIP-qPCR [1]: completely unaffected | gene expression changes of a CBX8 regulated gene (CBX8 regulated gene): only slightly affected | THP1 cell viability (THP1 cells): only slightly affected | selectivity for CBX8 ChD over CBX7 ChD (CBX8 ChD): 20 fold

CNC(=O)c1ccc(N2C(=S)N(c3ccc(C#N)c(C(F)(F)F)c3)C(=O)C2(C)C)cc1F [enzalutamide, reference compound]
LNCaP proliferation with AR antagonist (LNCaP cells): highly decreased proliferation | LNCaP_NED proliferation with AR antagonist (LNCaP_NED cells): no further decrease in proliferation

SW2_152F-B: biotinylated SW2_152F (SEQ ID NO: 29) (PIKS-{PEG4′-biotin}; also: Pro1 alpha-amino modified, Lys3 side chain amino modified)
enrichment of endogenous CBX proteins by biotinylated ligand, immunoblot (endogenous CBX proteins): robustly enriched CBX2 and CBX8 with limited enrichment of other paralogs
